Measurements published in the NIST ThermoML archive (doi:10.1016/j.jct.2018.07.006).
Where “and” joins values, the source holds several entries; their conditions need not be identical. Identical values can stand only once.

Experiment: mn = molality of the nth substance listed, in mol/kg
Details: 100 kPa, Liquid; for speed of sound: Frequency=3 MHz, Single path-length method; for mass density: Vibrating tube method

CC(C)(CO)[C@@H](O)C(=O)NCCCO [d-Panthenol] + O
Details | mass density, 293.15 K [kg/m3] | mass density, 298.15 K | mass density, 303.15 K [kg/m3] | mass density, 308.15 K [kg/m3] | speed of sound, 293.15 K [m/s] | speed of sound, 298.15 K [m/s] | speed of sound, 303.15 K | speed of sound, 308.15 K [m/s]
m1 = 0.05 | 999.509 | 998.191 kg/m3 | 996.926 | 995.295 | 1489.4 | 1503 | 1515.5 m/s and 1516 m/s | 1525.2
m1 = 0.1 | 1001.62 | 1000.22 kg/m3 | 998.987 | 997.338 | 1494.1 | 1507.6 | 1519.5 m/s and 1517.9 m/s | 1529.1
m1 = 0.15 | 1003.34 | 1002.12 kg/m3 and 1002.09 kg/m3 | 1000.58 | 998.985 | 1498.5 | 1511.6 | 1522.9 m/s | 1532.5
